#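 48-hour exposure; five concentrations; linearly interpolated endpoints. TGI: concentration producing complete growth inhibition.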
# What was measured:
# Test in all cases: NCI tumour cell line growth inhibition, 48 h
# [1] = test system: MDA-MB-435
# [2] = test system: SK-MEL-2 melanoma
# [3] = test system: TK-10 renal
# [4] = test system: MDA-MB-231 breast
# [5] = test system: NCI-H460 lung
# [6] = test system: SNB-19 CNS
# [7] = test system: IGROV1 ovarian
# [8] = test system: BT-549 breast
# [9] = test system: OVCAR-5 ovarian
# [10] = test system: NCI/ADR-RES ovarian
# [11] = test system: HOP-62 NSCLC
# [12] = test system: NCI-H23 lung
# [13] = test system: EKVX NSCLC
# [14] = test system: CAKI-1 renal
# [15] = test system: U251 CNS
# [16] = test system: OVCAR-3 ovarian
# [17] = test system: A549 NSCLC
# [18] = test system: OVCAR-4 ovarian
# [19] = test system: HCT-15 colon
# [20] = test system: M14 melanoma
# [21] = test system: KM12 colon
# [22] = test system: DU-145 prostate
# [23] = test system: SF-295 CNS
# [24] = test system: K-562 leukemia
# [25] = test system: LOX IMVI melanoma
# [26] = test system: HCT-116 colon
# [27] = test system: UACC-62 melanoma
# [28] = test system: OVCAR-8 ovarian
# [29] = test system: MDA-N
# [30] = test system: HT29 colon
# [31] = test system: 786-0 renal
# [32] = test system: SK-OV-3 ovarian
# [33] = test system: MOLT-4 leukemia
# [34] = test system: SK-MEL-5 melanoma
# [35] = test system: SF-268 CNS
# [36] = test system: SF-539 CNS
# [37] = test system: SW-620 colon
# [38] = test system: COLO 205 colon
# [39] = test system: RXF 393 renal
# [40] = test system: SNB-75 CNS
# [41] = test system: NCI-H522 lung
# [42] = test system: SN12C renal
# [43] = test system: T-47D breast
# [44] = test system: NCI-H226 lung
# [45] = test system: CCRF-CEM leukemia
# [46] = test system: ACHN renal
# [47] = test system: SK-MEL-28 melanoma
# [48] = test system: PC-3 prostate
# [49] = test system: HL-60(TB) leukemia
# [50] = test system: MALME-3M melanoma
# [51] = test system: UACC-257 melanoma
# [52] = test system: MCF7 breast
# [53] = test system: UO-31 renal
# [54] = test system: HCC-2998 colon
# [55] = test system: HOP-92 NSCLC
# [56] = test system: A498 renal
structure (smiles),measurement,setting,value
COC(=O)C1=C(O)C(C(=O)OC)[C@]2(O)[C@@H](C(=O)OC)[C@H]1[C@H](C)[C@@H](c1ccccc1)[C@@H]2C(=O)OC (stereo partly specified),TGI,[1],> 100 µM
same,TGI,[2],> 100 µM
same,TGI,[3],> 100 µM
same,TGI,[4],> 100 µM
same,TGI,[5],> 100 µM
same,TGI,[6],> 100 µM
same,TGI,[7],93.5 µM
same,TGI,[8],> 100 µM
same,TGI,[9],> 100 µM
same,TGI,[10],> 100 µM
same,TGI,[11],> 100 µM
same,TGI,[12],> 100 µM
same,TGI,[13],> 100 µM
same,TGI,[14],> 100 µM
same,TGI,[15],> 100 µM
same,TGI,[16],> 100 µM
same,TGI,[17],> 100 µM
same,TGI,[18],> 100 µM
same,TGI,[19],> 100 µM
same,TGI,[20],> 100 µM
same,TGI,[21],> 100 µM
same,TGI,[22],> 100 µM
same,TGI,[23],> 100 µM
same,TGI,[24],> 100 µM
same,TGI,[25],> 100 µM
same,TGI,[26],> 100 µM
same,TGI,[27],> 100 µM
same,TGI,[28],> 100 µM
same,TGI,[29],> 100 µM
same,TGI,[30],> 100 µM
same,TGI,[31],> 100 µM
same,TGI,[32],> 100 µM
same,TGI,[33],> 100 µM
same,TGI,[34],> 100 µM
same,TGI,[35],> 100 µM
same,TGI,[36],> 100 µM
same,TGI,[37],> 100 µM
same,TGI,[38],> 100 µM
same,TGI,[39],> 100 µM
same,TGI,[40],> 100 µM
same,TGI,[41],47.1 µM
same,TGI,[42],> 100 µM
same,TGI,[43],> 100 µM
same,TGI,[44],> 100 µM
same,TGI,[45],70.7 µM
same,TGI,[46],> 100 µM
same,TGI,[47],> 100 µM
same,TGI,[48],> 100 µM
same,TGI,[49],62.3 µM
same,TGI,[50],> 100 µM
same,TGI,[51],> 100 µM
CC(=O)/C(=C/n1ccc(=O)[nH]c1=S)C(=O)Nc1ccccc1C,TGI,[1],> 100 µM
same,TGI,[2],> 100 µM
same,TGI,[3],> 100 µM
same,TGI,[4],> 100 µM
same,TGI,[5],> 100 µM
same,TGI,[6],> 100 µM
same,TGI,[7],> 100 µM
same,TGI,[52],> 100 µM
same,TGI,[8],> 100 µM
same,TGI,[9],> 100 µM
same,TGI,[10],> 100 µM
same,TGI,[11],> 100 µM
same,TGI,[12],> 100 µM
same,TGI,[13],> 100 µM
same,TGI,[14],> 100 µM
same,TGI,[15],> 100 µM
same,TGI,[16],> 100 µM
same,TGI,[17],> 100 µM
same,TGI,[53],> 100 µM
same,TGI,[18],> 100 µM
same,TGI,[19],> 100 µM
same,TGI,[20],> 100 µM
same,TGI,[21],> 100 µM
same,TGI,[22],> 100 µM
same,TGI,[23],> 100 µM
same,TGI,[54],> 100 µM
same,TGI,[25],> 100 µM
same,TGI,[26],> 100 µM
same,TGI,[27],> 100 µM
same,TGI,[28],> 100 µM
same,TGI,[29],> 100 µM
same,TGI,[55],> 100 µM
same,TGI,[30],> 100 µM
same,TGI,[31],> 100 µM
same,TGI,[32],> 100 µM
same,TGI,[34],> 100 µM
same,TGI,[56],> 100 µM
same,TGI,[35],> 100 µM
same,TGI,[36],> 100 µM
same,TGI,[37],> 100 µM
same,TGI,[38],> 100 µM
same,TGI,[39],> 100 µM
same,TGI,[40],> 100 µM
same,TGI,[42],> 100 µM
same,TGI,[43],> 100 µM
same,TGI,[44],> 100 µM
same,TGI,[46],> 100 µM
same,TGI,[47],> 100 µM
same,TGI,[49],> 100 µM
same,TGI,[51],> 100 µM

# Reference: PubChem BioAssay (NCI)
